Data as given in the NIST ThermoML archive (doi:10.1016/j.jct.2014.07.026).

Assay: mn = molality of the nth substance listed, in mol/kg
Settings: 100 kPa, Liquid; for mass density: Vibrating tube method; for speed of sound: Frequency=2 MHz, Linear variable-path acoustic interferometer

CCCCn1cc[n+](C)c1.NCC(=O)[O-] [1-butyl-3-methylimidazolium glycinate] + O
Settings | mass density [kg/m3] | speed of sound [m/s]
293.15 K, m1 = 0.03911 | 999.516 | –
293.15 K, m1 = 0.05766 | 1000.13 | –
293.15 K, m1 = 0.07571 | 1000.71 | –
293.15 K, m1 = 0.09405 | 1001.28 | –
293.15 K, m1 = 0.1177 | 1002.03 | –
293.15 K, m1 = 0.1634 | 1003.42 | –
293.15 K, m1 = 0.2013 | 1004.58 | –
293.15 K, m1 = 0.2535 | 1006.13 | –
293.15 K, m1 = 0.2905 | 1007.2 | –
293.15 K, m1 = 0.3496 | 1008.89 | –
293.15 K, m1 = 0.4089 | 1010.57 | –
293.15 K, m1 = 0.4607 | 1012 | –
293.15 K, m1 = 0.5188 | 1013.58 | –
298.15 K, m1 = 0.03911 | 998.332 | –
298.15 K, m1 = 0.05112 | – | 1505.2
298.15 K, m1 = 0.05766 | 998.92 | –
298.15 K, m1 = 0.07571 | 999.491 | –
298.15 K, m1 = 0.09405 | 1000.03 | –
298.15 K, m1 = 0.1057 | – | 1512.8
298.15 K, m1 = 0.1177 | 1000.77 | –
298.15 K, m1 = 0.1479 | – | 1518.7
298.15 K, m1 = 0.1634 | 1002.14 | –
298.15 K, m1 = 0.1966 | – | 1525.4
298.15 K, m1 = 0.2013 | 1003.25 | –
298.15 K, m1 = 0.2458 | – | 1531.5
298.15 K, m1 = 0.2535 | 1004.78 | –
298.15 K, m1 = 0.2904 | – | 1537.8
298.15 K, m1 = 0.2905 | 1005.83 | –
298.15 K, m1 = 0.3486 | – | 1545.1
298.15 K, m1 = 0.3496 | 1007.53 | –
298.15 K, m1 = 0.4012 | – | 1551.1
298.15 K, m1 = 0.4089 | 1009.11 | –
298.15 K, m1 = 0.4523 | – | 1557.8
298.15 K, m1 = 0.4607 | 1010.51 | –
298.15 K, m1 = 0.5188 | 1012.11 | –
298.15 K, m1 = 0.5271 | – | 1566.9
303.15 K, m1 = 0.03911 | 996.915 | –
303.15 K, m1 = 0.05766 | 997.485 | –
303.15 K, m1 = 0.07571 | 998.049 | –
303.15 K, m1 = 0.09405 | 998.596 | –
303.15 K, m1 = 0.1177 | 999.306 | –
303.15 K, m1 = 0.1634 | 1000.64 | –
303.15 K, m1 = 0.2013 | 1001.73 | –
303.15 K, m1 = 0.2535 | 1003.2 | –
303.15 K, m1 = 0.2905 | 1004.25 | –
303.15 K, m1 = 0.3496 | 1005.87 | –
303.15 K, m1 = 0.4089 | 1007.48 | –
303.15 K, m1 = 0.4607 | 1008.89 | –
303.15 K, m1 = 0.5188 | 1010.43 | –
308.15 K, m1 = 0.03804 | 995.245 | –
308.15 K, m1 = 0.05959 | 995.908 | –
308.15 K, m1 = 0.07881 | 996.479 | –
308.15 K, m1 = 0.09916 | 997.101 | –
308.15 K, m1 = 0.1199 | 997.708 | –
308.15 K, m1 = 0.1512 | 998.623 | –
308.15 K, m1 = 0.206 | 1000.16 | –
308.15 K, m1 = 0.2462 | 1001.31 | –
308.15 K, m1 = 0.2873 | 1002.43 | –
308.15 K, m1 = 0.359 | 1004.36 | –
308.15 K, m1 = 0.3954 | 1005.3 | –
308.15 K, m1 = 0.4498 | 1006.76 | –
308.15 K, m1 = 0.5188 | 1008.59 | –
313.15 K, m1 = 0.03949 | 993.444 | –
313.15 K, m1 = 0.05959 | 994.046 | –
313.15 K, m1 = 0.07881 | 994.62 | –
313.15 K, m1 = 0.09916 | 995.217 | –
313.15 K, m1 = 0.1199 | 995.816 | –
313.15 K, m1 = 0.1512 | 996.706 | –
313.15 K, m1 = 0.206 | 998.24 | –
313.15 K, m1 = 0.2462 | 999.361 | –
313.15 K, m1 = 0.2873 | 1000.45 | –
313.15 K, m1 = 0.359 | 1002.39 | –
313.15 K, m1 = 0.3954 | 1003.31 | –
313.15 K, m1 = 0.4498 | 1004.72 | –
313.15 K, m1 = 0.5188 | 1006.52 | –
